Test results published in ChEMBL document CHEMBL1150388, “Discovery of orally active pyrrolopyridine- and aminopyridine-based Met kinase inhibitors” (Bioorg Med Chem Lett, 2008).

What was measured:
[1] = Metabolic stability in mouse liver microsomes at 3 uM after 10 mins; assay type: ADME, Microsome
[2] = Tmax in mouse at 50 mg/kg, po; assay type: ADME, organism-based; design: dose 50 mg/kg, route oral; conditions: in vivo
[3] = Cmax in mouse at 50 mg/kg, po; assay type: ADME, organism-based; design: dose 50 mg/kg, route oral; conditions: in vivo
[4] = target: Hepatocyte growth factor receptor (Homo sapiens, UniProt P08581); experiment: Inhibition of Met kinase
Chain of Hepatocyte growth factor receptor (P08581 whole entry): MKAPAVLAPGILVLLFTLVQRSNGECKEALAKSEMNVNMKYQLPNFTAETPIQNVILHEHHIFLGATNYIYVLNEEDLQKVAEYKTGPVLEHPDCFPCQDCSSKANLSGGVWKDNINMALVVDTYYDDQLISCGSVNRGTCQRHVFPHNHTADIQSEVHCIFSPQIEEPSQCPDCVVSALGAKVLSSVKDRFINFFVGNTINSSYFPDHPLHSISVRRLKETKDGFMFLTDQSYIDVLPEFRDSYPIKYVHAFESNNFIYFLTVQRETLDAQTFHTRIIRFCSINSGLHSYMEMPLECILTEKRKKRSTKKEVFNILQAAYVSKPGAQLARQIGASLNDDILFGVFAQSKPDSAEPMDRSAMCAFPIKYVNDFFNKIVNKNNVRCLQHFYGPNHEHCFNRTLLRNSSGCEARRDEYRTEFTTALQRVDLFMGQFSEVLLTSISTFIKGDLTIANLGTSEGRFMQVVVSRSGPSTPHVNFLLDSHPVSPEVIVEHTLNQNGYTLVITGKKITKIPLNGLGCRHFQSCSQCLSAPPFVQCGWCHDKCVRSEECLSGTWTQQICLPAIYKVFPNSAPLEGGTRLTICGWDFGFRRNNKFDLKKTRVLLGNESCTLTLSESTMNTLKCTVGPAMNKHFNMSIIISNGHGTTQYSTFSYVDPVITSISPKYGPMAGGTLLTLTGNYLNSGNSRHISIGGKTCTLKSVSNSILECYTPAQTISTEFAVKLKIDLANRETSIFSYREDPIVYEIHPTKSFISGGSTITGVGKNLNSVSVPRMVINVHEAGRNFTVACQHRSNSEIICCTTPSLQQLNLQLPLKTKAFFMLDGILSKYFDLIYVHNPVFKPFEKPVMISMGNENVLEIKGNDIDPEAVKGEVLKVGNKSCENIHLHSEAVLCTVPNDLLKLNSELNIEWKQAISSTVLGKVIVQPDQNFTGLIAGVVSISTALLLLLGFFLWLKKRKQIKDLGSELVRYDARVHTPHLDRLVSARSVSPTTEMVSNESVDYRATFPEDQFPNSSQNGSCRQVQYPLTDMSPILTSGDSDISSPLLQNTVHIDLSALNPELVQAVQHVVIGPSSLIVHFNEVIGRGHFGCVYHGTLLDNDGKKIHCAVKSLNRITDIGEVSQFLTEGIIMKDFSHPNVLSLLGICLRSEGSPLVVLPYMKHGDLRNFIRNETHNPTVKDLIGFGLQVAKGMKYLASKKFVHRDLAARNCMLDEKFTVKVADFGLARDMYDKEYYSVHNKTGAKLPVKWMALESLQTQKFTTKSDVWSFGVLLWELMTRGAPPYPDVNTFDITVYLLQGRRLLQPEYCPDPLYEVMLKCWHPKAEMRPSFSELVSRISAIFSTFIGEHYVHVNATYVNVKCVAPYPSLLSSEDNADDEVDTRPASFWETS

[5] = test system: Liver microsomes; experiment: Metabolic stability in human liver microsomes at 3 uM after 10 mins; assay type: ADME, Microsome
[6] = Antiproliferative activity against human GTL16 cells; assay type: functional, cell-based; conditions: GTL 16
[7] = AUC (0 to 4 hrs) in mouse at 50 mg/kg, po; assay type: ADME, organism-based; design: time < 4 hr, dose 50 mg/kg, route oral; conditions: plasma
[8] = Antitumor activity in human GTL16 cells xenografted athymic mouse 25 mg/kg, po daily once for 14 days; assay type: functional; conditions: GTL 16, 336 h, read-out: TGI
[9] = Antitumor activity in human GTL16 cells xenografted athymic mouse 75 mg/kg, po daily once for 14 days; assay type: functional; conditions: GTL 16, 336 h, read-out: TGI
[10] = Antitumor activity in human GTL16 cells xenografted athymic mouse 125 mg/kg, po daily once for 14 days; assay type: functional; conditions: GTL 16, 336 h, read-out: TGI
[11] = target: Cytochrome P450 3A4 (Homo sapiens, UniProt P08684); experiment: Inhibition of human CYP3A4; assay type: ADME
Chain of Cytochrome P450 3A4 (P08684 whole entry): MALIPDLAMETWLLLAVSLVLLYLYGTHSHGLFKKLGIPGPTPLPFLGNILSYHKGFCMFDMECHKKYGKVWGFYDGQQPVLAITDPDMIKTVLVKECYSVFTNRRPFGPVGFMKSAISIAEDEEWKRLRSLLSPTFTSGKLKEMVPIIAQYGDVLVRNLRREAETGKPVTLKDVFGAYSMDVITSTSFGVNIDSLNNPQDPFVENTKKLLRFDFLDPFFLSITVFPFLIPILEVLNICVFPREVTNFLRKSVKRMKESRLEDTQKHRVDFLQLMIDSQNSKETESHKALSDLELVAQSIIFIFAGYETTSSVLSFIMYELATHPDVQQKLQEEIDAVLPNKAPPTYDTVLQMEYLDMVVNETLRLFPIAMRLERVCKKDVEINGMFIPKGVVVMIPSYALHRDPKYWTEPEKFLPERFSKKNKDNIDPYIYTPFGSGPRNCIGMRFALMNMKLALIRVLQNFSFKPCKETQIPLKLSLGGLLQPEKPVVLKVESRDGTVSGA

[12] = AUC (0 to 8 hrs) in mouse at 50 mg/kg, po; assay type: ADME, organism-based; design: time < 8 hr, dose 50 mg/kg, route oral; conditions: plasma
[13] = Antitumor activity in human GTL16 cells xenografted athymic mouse 50 mg/kg, po daily once for 14 days; assay type: functional; conditions: GTL 16, 336 h, read-out: TGI
[14] = Protein binding in mouse plasma; assay type: ADME, cell-free; conditions: read-out: PPB (converted)
[15] = Antitumor activity in human GTL16 cells xenografted athymic mouse 100 mg/kg, po daily once for 14 days; assay type: functional; conditions: GTL 16, 336 h, read-out: TGI

What does the source list for O=C(Cc1ccc(F)cc1)NC(=O)Nc1ccc(Oc2ccnc3[nH]ccc23)c(F)c1?
Rate of metabolism [1]: 0.035 nmol/min/mg; Tmax [2]: 4 h; Cmax [3]: 2.4 µM; IC50 [4]: 110 nM; Stability [5]: 0.015 nmol/min/mg; IC50 [6]: 150 nM; AUC(0-t) at 4 h [7]: 6 µM·h

Which IC50 [4] does the source give for O=C(CC(=O)Nc1ccc(Oc2ccnc3[nH]ccc23)c(F)c1)Nc1ccc(F)cc1 here?
The IC50 was 64 nM.

What about the IC50 [6] of the same compound?
Its IC50 is 1060 nM.

With Nc1cc(Oc2ccc(NC(=O)NC(=O)Cc3ccc(F)cc3)cc2F)ccn1 as the compound, how does the Rate of metabolism [1] read?
Its Rate of metabolism is 0.018 nmol/min/mg.

And the Tmax [2]?
The Tmax was 4 h.

And the Cmax [3]?
The Cmax was 10.5 µM.

What about the IC50 [4] of the same compound?
Its IC50 is 35 nM.

What about the inhibition in vivo at 25 mg/kg [8] of the same compound?
Its inhibition in vivo at 25 mg/kg is < 50%.

What about the Stability [5] of the same compound?
The Stability was 0 nmol/min/mg.

What about the inhibition in vivo at 75 mg/kg [9] of the same compound?
Its inhibition in vivo at 75 mg/kg is 80%.

And the IC50 [6]?
The IC50 was 290 nM.

And the AUC(0-t) at 4 h [7]?
The AUC(0-t) at 4 h was 33 µM·h.

And the inhibition in vivo at 125 mg/kg [10]?
The inhibition in vivo at 125 mg/kg was 98%.

For CN1CCN(CC(=O)c2c[nH]c3nccc(Oc4ccc(NC(=O)NC(=O)Cc5ccc(F)cc5)cc4F)c23)CC1, which IC50 [4] is on record?
The IC50 was 11 nM.

What about the IC50 [6] of the same compound?
The IC50 was 2220 nM.

With Nc1nccc(Oc2ccc(NC(=O)NC(=O)Cc3ccc(F)cc3)cc2F)c1C#CCO as the compound, how does the IC50 [11] read?
The IC50 was 700 nM.

What about the IC50 [4] of the same compound?
The IC50 was 3 nM.

What about the IC50 [6] of the same compound?
The IC50 was 30 nM.

What does the source list for O=C(Cc1ccc(F)cc1)NC(=O)Nc1ccc(Oc2ccnc3[nH]cc(C(=O)NCc4cccnc4)c23)c(F)c1?
IC50 [4]: 11 nM; IC50 [6]: 650 nM

Which results are given for O=C(Cc1ccc(F)cc1)NC(=O)Nc1ccc(Oc2ccnc3[nH]c(-c4cccnc4)cc23)c(F)c1?
Rate of metabolism [1]: 0.036 nmol/min/mg; Tmax [2]: 4 h; Cmax [3]: 2.1 µM; IC50 [4]: 2 nM; Stability [5]: 0.016 nmol/min/mg; AUC(0-t) at 8 h [12]: 11.4 µM·h; IC50 [6]: 30 nM

With O=C(Cc1ccc(F)cc1)NC(=O)Nc1ccc(Oc2ccnc3[nH]cc(CO)c23)c(F)c1 as the compound, how does the IC50 [4] read?
Its IC50 is 4 nM.

What about the IC50 [6] of the same compound?
Its IC50 is 180 nM.

Which IC50 [4] does the source give for COC(=O)c1c[nH]c2nccc(Oc3ccc(NC(=O)NC(=O)Cc4ccc(F)cc4)cc3F)c12 here?
Its IC50 is 5 nM.

And the IC50 [6]?
Its IC50 is 180 nM.

For Nc1cc(Oc2ccc(NC(=O)CC(=O)Nc3ccc(F)cc3)cc2F)ccn1, which IC50 [4] is on record?
The IC50 was 100 nM.

And the IC50 [6]?
The IC50 was 1490 nM.

For C#Cc1c(Oc2ccc(NC(=O)NC(=O)Cc3ccc(F)cc3)cc2F)ccnc1N, which IC50 [11] is on record?
The IC50 was 800 nM.

What about the IC50 [4] of the same compound?
Its IC50 is 2 nM.

And the IC50 [6]?
Its IC50 is 40 nM.

Which results are given for Nc1nc(-c2c[nH]c3nccc(Oc4ccc(NC(=O)NC(=O)Cc5ccc(F)cc5)cc4F)c23)cs1?
IC50 [4]: 7 nM; IC50 [6]: 30 nM

Which results are given for NCC#Cc1c(Oc2ccc(NC(=O)NC(=O)Cc3ccc(F)cc3)cc2F)ccnc1N?
IC50 [11]: 1800 nM; IC50 [4]: 5 nM; IC50 [6]: 250 nM

Which results are given for O=C(Cc1ccc(F)cc1)NC(=O)Nc1ccc(Oc2ccnc3[nH]cc(C(=O)CN4CCC(O)C4)c23)c(F)c1 (stereo not drawn)?
IC50 [4]: 19 nM; IC50 [6]: 1470 nM

What does the source list for CN(C)CC(=O)c1c[nH]c2nccc(Oc3ccc(NC(=O)NC(=O)Cc4ccc(F)cc4)cc3F)c12?
IC50 [4]: 44 nM; IC50 [6]: 1050 nM

What does the source list for CN(C)CC#Cc1c(Oc2ccc(NC(=O)NC(=O)Cc3ccc(F)cc3)cc2F)ccnc1N?
IC50 [11]: 2700 nM; IC50 [4]: 4 nM; IC50 [6]: 220 nM

With Nc1nccc(Oc2ccc(NC(=O)NC(=O)Cc3ccc(F)cc3)cc2F)c1C#Cc1ccccn1 as the compound, how does the Rate of metabolism [1] read?
Its Rate of metabolism is 0.042 nmol/min/mg.

And the Tmax [2]?
The Tmax was 4 h.

And the Cmax [3]?
Its Cmax is 16 µM.

And the IC50 [11]?
The IC50 was 37000 nM.

And the IC50 [4]?
Its IC50 is 5 nM.

What about the Stability [5] of the same compound?
The Stability was 0 nmol/min/mg.

What about the inhibition in vivo at 50 mg/kg [13] of the same compound?
Its inhibition in vivo at 50 mg/kg is < 50%.

What about the fraction unbound [14] of the same compound?
Its fraction unbound is 0.0002.

And the AUC(0-t) at 8 h [12]?
Its AUC(0-t) at 8 h is 85 µM·h.

And the IC50 [6]?
Its IC50 is 40 nM.

For O=C(Cc1ccc(F)cc1)NC(=O)Nc1ccc(Oc2ccnc3[nH]cc(-c4cccnc4)c23)c(F)c1, which Rate of metabolism [1] is on record?
The Rate of metabolism was 0.049 nmol/min/mg.

And the Tmax [2]?
Its Tmax is 4 h.

What about the Cmax [3] of the same compound?
Its Cmax is 6 µM.

And the IC50 [4]?
Its IC50 is 2 nM.

And the inhibition in vivo at 100 mg/kg [15]?
Its inhibition in vivo at 100 mg/kg is 88%.

And the Stability [5]?
The Stability was 0.038 nmol/min/mg.

And the inhibition in vivo at 50 mg/kg [13]?
The inhibition in vivo at 50 mg/kg was 67%.

What about the AUC(0-t) at 8 h [12] of the same compound?
Its AUC(0-t) at 8 h is 34 µM·h.

And the IC50 [6]?
The IC50 was 20 nM.
